Consider 15 compounds from ChEMBL document CHEMBL3102756, “Synthesis and biological evaluation of a series of aminoalkyl-tetralones and tetralols as dual dopamine/serotonin ligands” (Eur J Med Chem, 2014).

SMILES strings stand for the structures.

Experiment [1] deals with T1, 5-hydroxytryptamine receptor 2A (Homo sapiens, UniProt P28223). Description: Displacement of [3H]ketanserin from human 5-HT2A receptor. In general terms: Loss of bound radioactivity is the signal in a displacement assay; it reports binding, not function.
The target in experiment [2] is T1, 5-hydroxytryptamine receptor 2A. To be noted: CHO.
Description: Competitive antagonist activity at human 5-HT2A receptor expressed in CHO cells assessed as inhibition of inositol phosphate release after 30 mins by HTRF assay
Experiment [3] deals with D(2) dopamine receptor (Homo sapiens) (UniProt P14416). To be noted: CHO.
Description: Competitive antagonist activity at human D2 receptor expressed in CHO cells assessed as inhibition of cAMP release after 30 mins by HTRF assay
Experiment [4] addresses T1, 5-hydroxytryptamine receptor 2A. Description: Binding affinity for 5-HT2A receptor (unknown origin).

Sequence of D(2) dopamine receptor (Homo sapiens) (P14416 whole entry): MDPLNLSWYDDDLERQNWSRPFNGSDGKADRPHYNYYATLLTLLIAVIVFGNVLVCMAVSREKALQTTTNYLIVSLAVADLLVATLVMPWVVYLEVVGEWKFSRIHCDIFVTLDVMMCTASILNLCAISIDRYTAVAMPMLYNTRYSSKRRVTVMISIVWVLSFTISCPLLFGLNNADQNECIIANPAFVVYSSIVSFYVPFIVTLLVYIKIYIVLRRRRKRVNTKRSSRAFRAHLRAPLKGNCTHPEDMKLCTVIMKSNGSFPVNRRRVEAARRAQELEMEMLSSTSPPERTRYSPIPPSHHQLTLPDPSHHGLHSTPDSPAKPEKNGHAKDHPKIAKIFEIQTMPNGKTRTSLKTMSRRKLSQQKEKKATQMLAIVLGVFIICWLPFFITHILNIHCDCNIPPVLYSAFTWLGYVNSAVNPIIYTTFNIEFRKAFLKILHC
T1 sequence (P28223 whole entry): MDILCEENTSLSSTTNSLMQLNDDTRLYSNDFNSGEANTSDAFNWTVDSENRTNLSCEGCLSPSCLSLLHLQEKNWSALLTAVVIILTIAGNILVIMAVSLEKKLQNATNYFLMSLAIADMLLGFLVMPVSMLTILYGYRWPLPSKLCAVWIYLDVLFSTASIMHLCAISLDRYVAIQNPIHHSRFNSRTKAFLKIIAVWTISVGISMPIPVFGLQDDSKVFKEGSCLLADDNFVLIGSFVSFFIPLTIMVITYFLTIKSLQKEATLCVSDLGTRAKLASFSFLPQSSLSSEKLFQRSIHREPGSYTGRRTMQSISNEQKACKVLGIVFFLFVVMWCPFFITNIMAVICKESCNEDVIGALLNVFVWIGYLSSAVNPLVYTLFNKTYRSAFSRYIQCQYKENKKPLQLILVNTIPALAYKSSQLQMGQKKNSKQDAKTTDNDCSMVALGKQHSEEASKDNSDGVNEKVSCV

As usually defined, the Ki is a measure of affinity in units of concentration, obtained from inhibition or displacement. The compound `O=[N+]([O-])c1ccc2c(c1)C(O)C(CCN1CCC(c3noc4cc(F)ccc34)CC1)CC2` (stereo unspecified) had a Ki in experiment [1] of 11 nM. In general, pKb refers to the negative decadic logarithm of the Kb, by convention in mol/L. A lower pKb goes with a large Kb. For the compound `Nc1ccc2c(c1)C(=O)C(CCN1CCC(c3noc4cc(F)ccc34)CC1)CC2` (stereo unspecified), the Ki in experiment [1] was 5.01 nM. Further, the pKb came out at 8.76 in experiment [2] and 7.53 in experiment [3]. For `CC(=O)c1ccc2c(c1)CC(CN1CCC(C(=O)c3ccc(F)cc3)CC1)CC2=O` (stereo unspecified), the affinity in experiment [1], expressed as Ki, was 63.1 nM.

The compound `O=C1CC(CN2CCC(C(=O)c3ccc(F)cc3)CC2)Cc2cc(-c3ccccc3)ccc21` (stereo unspecified) gave an inhibition constant (Ki) in experiment [1] of 631 nM. The compound `O=C1CC(CN2CCC(c3noc4cc(F)ccc34)CC2)Cc2cc(-c3ccccc3)ccc21` (stereo unspecified) showed a Ki in experiment [1] of 15.8 nM. Moreover, the figures for the pKb in experiment [2] and in experiment [3] were 7.84 and 7.55, respectively.

`COc1ccccc1N1CCN(CCC2CCc3ccc([N+](=O)[O-])cc3C2=O)CC1` (stereo unspecified) gave a Ki in experiment [1] of 794 nM. Still for that read-out and setting: to `Nc1ccc2c(c1)C(=O)C(CCN1CCC(C(=O)c3ccc(F)cc3O)CC1)CC2` (stereo unspecified) belongs 23.4 nM. Same read-out and setting: under `CC(=O)c1ccc2c(c1)CC(CN1CCC(c3noc4cc(F)ccc34)CC1)CC2=O` (stereo unspecified) stands 31.6 nM; under `COc1ccccc1N1CCN(CCC2CCc3ccc(N)cc3C2O)CC1` (stereo unspecified), 158 nM. In experiment [1], `COc1ccccc1N1CCN(CCC2CCc3ccc([N+](=O)[O-])cc3C2O)CC1` (stereo unspecified) gave a Ki of 513 nM. The same measure, in the same setting: to `Nc1ccc2c(c1)C(O)C(CCN1CCC(c3noc4cc(F)ccc34)CC1)CC2` (stereo unspecified) belongs 6.61 nM. `O=C1CC(CN2CCC(c3noc4cc(F)ccc34)CC2)Cc2ccccc21` (stereo unspecified) had an inhibitory constant (Ki) in experiment [4] of 2.75 nM. Turning to `Nc1ccc2c(c1)C(O)C(CCN1CCC(C(=O)c3ccc(F)cc3O)CC1)CC2` (stereo unspecified), the Ki in experiment [1] was 4.47 nM. Moreover, the pKb amounted to 7.82 in experiment [2] and 6.32 in experiment [3]. As to `COc1ccccc1N1CCN(CCC2CCc3ccc(N)cc3C2=O)CC1` (stereo unspecified), the Ki in experiment [1] is 42.7 nM.

For `O=C1c2cc([N+](=O)[O-])ccc2CCC1CCN1CCC(c2noc3cc(F)ccc23)CC1` (stereo unspecified), the Ki in experiment [1] was 19.1 nM.
